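96-well plates; 48 h exposure; 5 concentrations. Endpoints by linear interpolation between flanking doses. Not reached: highest tested concentration assigned. GI50 is the concentration that inhibits growth by half. TGI: concentration producing complete growth inhibition.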
How the values were obtained:
Assay in all cases: NCI tumour cell line growth inhibition, 48 h
786-0 renal = system: 786-0 renal
A498 renal = system: A498 renal
A549 NSCLC = system: A549 NSCLC
ACHN renal = system: ACHN renal
BT-549 breast = system: BT-549 breast
CAKI-1 renal = system: CAKI-1 renal
CCRF-CEM leukemia = system: CCRF-CEM leukemia
COLO 205 colon = system: COLO 205 colon
DU-145 prostate = system: DU-145 prostate
EKVX NSCLC = system: EKVX NSCLC
HCC-2998 colon = system: HCC-2998 colon
HCT-116 colon = system: HCT-116 colon
HCT-15 colon = system: HCT-15 colon
HL-60(TB) leukemia = system: HL-60(TB) leukemia
HOP-62 NSCLC = system: HOP-62 NSCLC
HOP-92 NSCLC = system: HOP-92 NSCLC
HS 578T breast = system: HS 578T breast
HT29 colon = system: HT29 colon
IGROV1 ovarian = system: IGROV1 ovarian
K-562 leukemia = system: K-562 leukemia
KM12 colon = system: KM12 colon
LOX IMVI melanoma = system: LOX IMVI melanoma
M14 melanoma = system: M14 melanoma
MALME-3M melanoma = system: MALME-3M melanoma
MCF7 breast = system: MCF7 breast
MDA-MB-231 breast = system: MDA-MB-231 breast
MDA-MB-435 = system: MDA-MB-435
MOLT-4 leukemia = system: MOLT-4 leukemia
NCI-H226 lung = system: NCI-H226 lung
NCI-H460 lung = system: NCI-H460 lung
NCI-H522 lung = system: NCI-H522 lung
NCI/ADR-RES ovarian = system: NCI/ADR-RES ovarian
OVCAR-3 ovarian = system: OVCAR-3 ovarian
OVCAR-4 ovarian = system: OVCAR-4 ovarian
OVCAR-5 ovarian = system: OVCAR-5 ovarian
OVCAR-8 ovarian = system: OVCAR-8 ovarian
PC-3 prostate = system: PC-3 prostate
RPMI-8226 leukemia = system: RPMI-8226 leukemia
RXF 393 renal = system: RXF 393 renal
SF-268 CNS = system: SF-268 CNS
SF-295 CNS = system: SF-295 CNS
SF-539 CNS = system: SF-539 CNS
SK-MEL-2 melanoma = system: SK-MEL-2 melanoma
SK-MEL-28 melanoma = system: SK-MEL-28 melanoma
SK-MEL-5 melanoma = system: SK-MEL-5 melanoma
SK-OV-3 ovarian = system: SK-OV-3 ovarian
SN12C renal = system: SN12C renal
SNB-19 CNS = system: SNB-19 CNS
SNB-75 CNS = system: SNB-75 CNS
SR leukemia = system: SR leukemia
SW-620 colon = system: SW-620 colon
T-47D breast = system: T-47D breast
TK-10 renal = system: TK-10 renal
U251 CNS = system: U251 CNS
UACC-257 melanoma = system: UACC-257 melanoma
UACC-62 melanoma = system: UACC-62 melanoma
UO-31 renal = system: UO-31 renal

## O=C1Nc2cc(Cl)ccc2/C1=C\c1ccc(OCc2ccc(Br)cc2F)cc1
786-0 renal
  GI50: 1.98 µM
  TGI: 3.66 µM
A498 renal
  GI50: 2.5 µM
  TGI: 5.95 µM
A549 NSCLC
  GI50: 2.04 µM
  TGI: 4.62 µM
ACHN renal
  GI50: 1.83 µM
  TGI: 4.04 µM
BT-549 breast
  GI50: 2.1 µM
  TGI: 4.69 µM
CAKI-1 renal
  GI50: 1.67 µM
  TGI: 3.35 µM
CCRF-CEM leukemia
  GI50: 3.74 µM
  TGI: 22 µM
COLO 205 colon
  GI50: 2.58 µM
  TGI: 12.4 µM
DU-145 prostate
  GI50: 2.93 µM
  TGI: > 100 µM
EKVX NSCLC
  GI50: 3.85 µM
  TGI: 18 µM
HCC-2998 colon
  GI50: 4.14 µM
  TGI: 37.4 µM
HCT-116 colon
  GI50: 1.38 µM
  TGI: 2.87 µM
HCT-15 colon
  GI50: 3.55 µM
  TGI: 50.1 µM
HL-60(TB) leukemia
  GI50: 53 µM
  TGI: > 100 µM
HOP-62 NSCLC
  GI50: 1.79 µM
  TGI: 3.76 µM
HOP-92 NSCLC
  GI50: 1.22 µM
  TGI: 3.85 µM
HS 578T breast
  GI50: 1.91 µM
  TGI: 6.2 µM
HT29 colon
  GI50: 2.37 µM
  TGI: 6.4 µM
IGROV1 ovarian
  GI50: 2.07 µM
  TGI: 5.13 µM
K-562 leukemia
  GI50: 3.3 µM
  TGI: > 100 µM
KM12 colon
  GI50: 3.12 µM
  TGI: 73.7 µM
LOX IMVI melanoma
  GI50: 1.49 µM
  TGI: 2.88 µM
M14 melanoma
  GI50: 2.27 µM
  TGI: 6.69 µM
MALME-3M melanoma
  GI50: 1.97 µM
  TGI: 4.27 µM
MCF7 breast
  GI50: 1.25 µM
  TGI: 15.2 µM
MDA-MB-231 breast
  GI50: 2.2 µM
  TGI: 5.34 µM
MDA-MB-435
  GI50: 2.26 µM
  TGI: 5.38 µM
MOLT-4 leukemia
  GI50: 3.57 µM
  TGI: 26.1 µM
NCI-H226 lung
  GI50: 2.19 µM
  TGI: 6.89 µM
NCI-H460 lung
  GI50: 0.459 µM
  TGI: 1.7 µM
NCI-H522 lung
  GI50: 1.8 µM
  TGI: 4.33 µM
NCI/ADR-RES ovarian
  GI50: 2.31 µM
  TGI: 6 µM
OVCAR-3 ovarian
  GI50: 2.08 µM
  TGI: 4.72 µM
OVCAR-4 ovarian
  GI50: 1.84 µM
  TGI: 3.71 µM
OVCAR-5 ovarian
  GI50: 4.16 µM
  TGI: > 100 µM
OVCAR-8 ovarian
  GI50: 2.46 µM
  TGI: 6.89 µM
PC-3 prostate
  GI50: 1.7 µM
  TGI: 3.49 µM
RPMI-8226 leukemia
  GI50: 3.71 µM
  TGI: > 100 µM
RXF 393 renal
  GI50: 1.65 µM
  TGI: 3.2 µM
SF-268 CNS
  GI50: 2.29 µM
  TGI: 6.34 µM
SF-295 CNS
  GI50: 1.89 µM
  TGI: 3.5 µM
SF-539 CNS
  GI50: 1.66 µM
  TGI: 3.18 µM
SK-MEL-2 melanoma
  GI50: 2.97 µM
  TGI: 9.98 µM
SK-MEL-28 melanoma
  GI50: 2.84 µM
  TGI: 8.37 µM
SK-MEL-5 melanoma
  GI50: 5.53 µM
  TGI: 82.4 µM
SK-OV-3 ovarian
  GI50: 1.69 µM
  TGI: 3.33 µM
SN12C renal
  GI50: 1.86 µM
  TGI: 4.09 µM
SNB-19 CNS
  GI50: 1.92 µM
  TGI: 4.29 µM
SNB-75 CNS
  GI50: 1.81 µM
  TGI: 3.39 µM
SR leukemia
  GI50: 2.59 µM
  TGI: 8.18 µM
SW-620 colon
  GI50: 1.9 µM
  TGI: 4.56 µM
T-47D breast
  GI50: 2.3 µM
  TGI: 6.6 µM
TK-10 renal
  GI50: 2.51 µM
  TGI: 4.59 µM
U251 CNS
  GI50: 1.69 µM
  TGI: 3.21 µM
UACC-257 melanoma
  GI50: 3.3 µM
  TGI: 18.4 µM
UACC-62 melanoma
  GI50: 1.68 µM
  TGI: 3.35 µM
UO-31 renal
  GI50: 1.49 µM
  TGI: 4.75 µM

## C/C(=C(/c1ccc(O)cc1)c1ccc(OCCN2CCCCCC2)cc1)c1ccccc1
786-0 renal
  GI50: 27.1 µM
  TGI: > 100 µM
A498 renal
  GI50: > 100 µM
  TGI: > 100 µM
A549 NSCLC
  GI50: > 100 µM
  TGI: > 100 µM
ACHN renal
  GI50: > 100 µM
  TGI: > 100 µM
BT-549 breast
  GI50: > 100 µM
  TGI: > 100 µM
CAKI-1 renal
  GI50: 65.9 µM
  TGI: > 100 µM
CCRF-CEM leukemia
  GI50: 76.2 µM
  TGI: > 100 µM
COLO 205 colon
  GI50: 17.9 µM
  TGI: 34.4 µM
DU-145 prostate
  GI50: > 100 µM
  TGI: > 100 µM
EKVX NSCLC
  GI50: > 100 µM
  TGI: > 100 µM
HCC-2998 colon
  GI50: 34.1 µM
  TGI: > 100 µM
HCT-116 colon
  GI50: 34.1 µM
  TGI: > 100 µM
HCT-15 colon
  GI50: 23.8 µM
  TGI: 69.9 µM
HL-60(TB) leukemia
  GI50: 26.5 µM
  TGI: > 100 µM
HOP-62 NSCLC
  GI50: > 100 µM
  TGI: > 100 µM
HOP-92 NSCLC
  GI50: 61.8 µM
  TGI: > 100 µM
HS 578T breast
  GI50: 60.7 µM
  TGI: > 100 µM
HT29 colon
  GI50: 27.7 µM
  TGI: > 100 µM
IGROV1 ovarian
  GI50: > 100 µM
  TGI: > 100 µM
K-562 leukemia
  GI50: 22.7 µM
  TGI: > 100 µM
KM12 colon
  GI50: 83.8 µM
  TGI: > 100 µM
LOX IMVI melanoma
  GI50: 19.5 µM
  TGI: 41.5 µM
M14 melanoma
  GI50: 35.5 µM
  TGI: > 100 µM
MALME-3M melanoma
  GI50: 40.9 µM
  TGI: > 100 µM
MCF7 breast
  GI50: 0.0615 µM
  TGI: > 100 µM
MDA-MB-231 breast
  GI50: > 100 µM
  TGI: > 100 µM
MDA-MB-435
  GI50: > 100 µM
  TGI: > 100 µM
MOLT-4 leukemia
  GI50: 32.6 µM
  TGI: > 100 µM
NCI-H226 lung
  GI50: > 100 µM
  TGI: > 100 µM
NCI-H460 lung
  GI50: 38.2 µM
  TGI: > 100 µM
NCI-H522 lung
  GI50: > 100 µM
  TGI: > 100 µM
NCI/ADR-RES ovarian
  GI50: > 100 µM
  TGI: > 100 µM
OVCAR-3 ovarian
  GI50: > 100 µM
  TGI: > 100 µM
OVCAR-4 ovarian
  GI50: > 100 µM
  TGI: > 100 µM
OVCAR-5 ovarian
  GI50: > 100 µM
  TGI: > 100 µM
OVCAR-8 ovarian
  GI50: > 100 µM
  TGI: > 100 µM
PC-3 prostate
  GI50: 57.9 µM
  TGI: > 100 µM
RPMI-8226 leukemia
  GI50: 30.5 µM
  TGI: > 100 µM
RXF 393 renal
  GI50: 31.2 µM
  TGI: > 100 µM
SF-268 CNS
  GI50: > 100 µM
  TGI: > 100 µM
SF-295 CNS
  GI50: 93.3 µM
  TGI: > 100 µM
SF-539 CNS
  GI50: 61.3 µM
  TGI: > 100 µM
SK-MEL-2 melanoma
  GI50: > 100 µM
  TGI: > 100 µM
SK-MEL-28 melanoma
  GI50: 42.9 µM
  TGI: > 100 µM
SK-MEL-5 melanoma
  GI50: 66.1 µM
  TGI: > 100 µM
SK-OV-3 ovarian
  GI50: > 100 µM
  TGI: > 100 µM
SN12C renal
  GI50: > 100 µM
  TGI: > 100 µM
SNB-19 CNS
  GI50: > 100 µM
  TGI: > 100 µM
SNB-75 CNS
  GI50: > 100 µM
  TGI: > 100 µM
SR leukemia
  GI50: 22 µM
  TGI: 69.6 µM
SW-620 colon
  GI50: 25.5 µM
  TGI: 75.5 µM
T-47D breast
  GI50: 11.5 µM
  TGI: > 100 µM
TK-10 renal
  GI50: > 100 µM
  TGI: > 100 µM
U251 CNS
  GI50: 69.9 µM
  TGI: > 100 µM
UACC-257 melanoma
  GI50: 48.2 µM
  TGI: > 100 µM
UACC-62 melanoma
  GI50: > 100 µM
  TGI: > 100 µM
UO-31 renal
  GI50: 57.5 µM
  TGI: > 100 µM

Source: PubChem BioAssay (NCI)
